According to article PMC11760775 (bioRxiv, 2025):
Entries after “also recorded” stand apart in the source; their conditions may differ.

Columns and labels:
mice [1] = experiment: Tail flick acute heat nociception assay, reversal of morphine analgesia; assay type: in vivo, mouse; conditions: morphine 20mg/kg i.p., 50°C water bath
mice [2] = experiment: Conditioned place aversion in morphine tolerant mice; assay type: in vivo, mouse

Row | Compound | Tail flick latency (mice [1]) | CPA score (Test - Pretest) (mice [2]) | Time spent in antagonist-paired (withdrawal precipitation) chamber (mice [2]; after conditioning versus pre-treatment)
1 | CN1CC[C@]23c4c5ccc(O)c4O[C@H]2[C@@H](O)C=C[C@H]3[C@H]1C5 [morphine] | significantly increased |  | 
2 | C=CCN1CC[C@]23c4c5ccc(O)c4O[C@H]2C(=O)CC[C@@]3(O)[C@H]1C5 [naloxone] |  | avoided the treatment compartment to a greater extent | marked decrease; also recorded: significantly less time
